Here are results for two compounds from ChEMBL document CHEMBL1949669, “Imidazopyridines as selective CYP3A4 inhibitors” (Bioorg Med Chem Lett, 2012).

A short description of data set [1]: Solubility of the compound. It is filed as physicochemical.
The nature of data set [2]: Half life in human liver microsomes. It counts as ADME, Microsome.
Data set [3] in a line: Half life in human hepatic S9 fraction. It counts as ADME, subcellular, Liver.

Values after ≈ are worked out from the molar mass of the structure shown.

Consider `O=C(Nc1ccc(-c2ccccc2)cc1)Nc1ccc(-c2ccnc3[nH]cnc23)cc1`, for which the concentration in solution in data set [1] (solubility) came to 2 µM (≈ 0.811 µg/mL).

As to `CCOC(=O)c1cccc(NC(=O)Nc2ccc(-c3ccnc4[nH]cnc34)cc2)c1`, the half-life in data set [2] and in data set [3] was 8 min in each case.
